Assay results as given in article PMC12670160, “A drug-repurposing screen of FDA- and EMA-approved drugs identifies two NF-κB inhibitors active against eumycetoma” (Journal of Antimicrobial Chemotherapy, 2025).
Values after ≈ are worked out from the molar mass of the structure shown. Where a name gives a salt, the structure may show the parent alone. Read-outs that look alike come from different tables or passages of the source.

Columns and labels:
[1] = test system: M. mycetomatis strain mm55; conditions: 96 h, 2 µM
M. mycetomatis strain I1 = assay: IC50 and MIC determination, CellTiter-Glo, strain I1; assay type: cell-based, Madurella mycetomatis; conditions: Madurella mycetomatis, I1
[2] = test system: M. mycetomatis strain mm55; assay: IC50 and MIC determination, CellTiter-Glo, strain mm55; assay type: cell-based, Madurella mycetomatis; conditions: Madurella mycetomatis; for IC50: concentration inhibiting 50% of fungal hyphae growth; for MIC: concentration with complete growth inhibition
M. mycetomatis strain P1 = assay: IC50 and MIC determination, CellTiter-Glo, strain P1; assay type: cell-based, Madurella mycetomatis; conditions: Madurella mycetomatis, P1
M. mycetomatis = assay: In vitro susceptibility, averages over M. mycetomatis isolates (average metabolic activity at 2 µM, mean MIC); assay type: cell-based; conditions: Madurella mycetomatis, 96 h, 4 days at 37°C, CellTiter-Glo, average of 3 isolates, 20% or below = inhibition
Experimental: M. mycetomatis isolate MM55 was used to screen the Oncode library. This strain was kindly provided by Prof. […] The three M. mycetomatis isolates were identified by ITS sequencing and maintained at −80°C at Erasmus MC. Prior to in vitro screening, isolates were cultured on Sabouraud agar plates (BD, Erembodegem, Belgium) at 37°C.
The Oncode Drug Repurposing library was based on the drug repurposing library from the Drug Repurposing Hub of the Broad Institute and recreated by the Oncode institute.[13] […] Each well of the 384-well plates contained 0.6 µL of a 200 µM stock concentration of compound, resulting in a final concentration of 2 µM when the fungus was added. […] Furthermore, this concentration could also be reached in the G. mellonella larvae.[8],[11] The prepared 384-well plates were transferred on dry ice to the Erasmus MC and stored at −80°C until they were screened.
Each plate also contained a growth control (60 µL of M. mycetomatis hyphal suspension, plus 0.6 µL of DMSO) and a negative control (60 µL of culture medium, plus 0.6 µL of DMSO). Plates were then incubated for 4 days at 37°C, after which 30 µL of CellTiter-Glo 3D Cell Viability reagent was added to every well.[19] After 25 min of incubation at room temperature, the luminescence was measured with a CytoFluor Series 4000 luminometer (PerSeptive Biosystems, Framingham, MA, USA). To determine the metabolic activity, the following formula was used:
Percentagemetabolicactivity=(Absorbancetestluminensence−AbsorbanceNCluminensence/AbsorbanceGCluminensence−AbsorbanceNCluminensence)×100
where, GC is growth control and NC is negative control. The luminescence measured for the GC is considered as 100% metabolic activity. The luminescence for the NC is considered as 0% metabolic activity.

Molecule | % viability ([1]; m. mycetomatis hyphae) | further results
CCN(CC)C(C)C(=O)c1ccccc1 (centres unmarked) [ONC0002292, amfepramone] | 71.71% | –
O=C(O)C[C@H]1CC[C@H](c2ccc(-c3ccc(Nc4ccc(C(F)(F)F)nc4)cn3)cc2)CC1 [ONC0001945, pradigastat] | 103.8% | –
Clc1ccc(C(Cn2ccnc2)OCc2ccsc2Cl)c(Cl)c1 (centres unmarked) [Tioconazole] | – | IC50 (M. mycetomatis strain I1): 0.33 µM; MIC (M. mycetomatis strain I1): 0.5 µM (≈ 0.194 µg/mL); IC50 [2]: 1.24 µM; MIC [2]: 2 µM (≈ 0.775 µg/mL); IC50 (M. mycetomatis strain P1): 0.39 µM; MIC (M. mycetomatis strain P1): 0.5 µM (≈ 0.194 µg/mL); activity at 2 µM (M. mycetomatis): 3.2%
gonadorelin acetate [ONC0002245] | – | % viability ([1]; primary screen, metabolic activity vs growth control, inhibitor): 141.9%
CC[C@H]1OC(=O)[C@H](C)[C@@H](O[C@H]2C[C@@](C)(OC)[C@@H](O)[C@H](C)O2)[C@H](C)[C@@H](O[C@@H]2O[C@H](C)C[C@H](N(C)C)[C@H]2O)[C@](C)(O)C[C@@H](C)[C@@H]2N[C@@H](COCCOC)O[C@H]([C@H]2C)[C@]1(C)O [ONC0005551, dirithromycin] | 98.9% | –
CC(C)(C)c1ccc(-c2nc3ccccc3[nH]2)cc1 [ONC0004834, zln005] | 87.04% | –
CC(C)NCCCn1c(Sc2cc3c(cc2I)OCO3)nc2c(N)ncnc21 [ONC0002276, puh71] | 67.16% | –
NC(=O)c1ccc(N(C(N)=O)c2c(F)cccc2F)nc1-c1ccc(F)cc1F [ONC0004787, vx702] | 67.05% | –
CC(C)(C)c1cc(C(C)(C)C)c(NC(=O)c2c[nH]c3ccccc3c2=O)cc1O [ONC0004880, ivacaftor vx770] | 126.9% | –
O=P1(N(CCCl)CCCl)NCCCO1 (centres unmarked) [ONC0000336, cyclophosphamide] | 62% | –
Clc1ccccc1C(c1ccccc1)(c1ccccc1)n1ccnc1 [Clotrimazole] | – | MIC (M. mycetomatis strain I1): 0.5 µM (≈ 0.172 µg/mL); MIC [2]: 1 µM (≈ 0.345 µg/mL); MIC (M. mycetomatis strain P1): 1 µM (≈ 0.345 µg/mL); activity at 2 µM (M. mycetomatis): 4%
Clc1ccc(C(Cn2ccnc2)OCc2c(Cl)cccc2Cl)c(Cl)c1 (centres unmarked) [Isoconazole nitrate (Travogen), Isoconazole nitrate] | – | IC50 (M. mycetomatis strain I1): 0.36 µM; MIC (M. mycetomatis strain I1): 0.5 µM; IC50 [2]: 1.42 µM; MIC [2]: 2 µM; IC50 (M. mycetomatis strain P1): 0.06 µM; MIC (M. mycetomatis strain P1): 0.5 µM; activity at 2 µM (M. mycetomatis): 1.2%
C=CCOC(Cn1ccnc1)c1ccc(Cl)cc1Cl (centres unmarked) [Enilconazole sulphate] | – | IC50 (M. mycetomatis strain I1): 0.42 µM; MIC (M. mycetomatis strain I1): 0.5 µM; IC50 [2]: 1.25 µM; MIC [2]: 2 µM; IC50 (M. mycetomatis strain P1): 0.56 µM; MIC (M. mycetomatis strain P1): 1 µM; activity at 2 µM (M. mycetomatis): 1.3%
CC(=O)Oc1ccccc1C(=O)Nc1ncc([N+](=O)[O-])s1 [ONC0002436, nitazoxanide] | 87.75% | –
Cc1cc(Nc2cc(N3CCN(C)CC3)nc(Sc3ccc(NC(=O)C4CC4)cc3)n2)[nH]n1 [ONC0004696, vx680 mk0457 tozasertib] | 120.2% | –
COc1cc2c(c(OC)c1OC)-c1ccc(OC)c(=O)cc1[C@@H](NC(C)=O)CC2 [ONC0000317, colchicine] | 73.45% | –
CC(C)(C)C#Cc1cc(N(C(=O)[C@H]2CC[C@H](C)CC2)[C@H]2CC[C@@H](O)CC2)c(C(=O)O)s1 [ONC0004853, lomibuvir vx222 vch222] | 92.92% | –
COC(=O)[C@@H]1C[C@H](OC(C)=O)C(=O)[C@H]2[C@@]1(C)CC[C@H]1C(=O)O[C@H](c3ccoc3)C[C@]21C [ONC0003459, salvinorin a] | 35.37% | –
O=C(Nc1nc2cccc(-c3ccc(CN4CCS(=O)(=O)CC4)cc3)n2n1)C1CC1 [ONC0001023, filgotinib] | 70.26% | –
CCC(=O)O[C@@H]1CC(=O)O[C@H](C)C/C=C/C=C/[C@H](O)[C@H](C)C[C@H](CC=O)[C@H](O[C@@H]2O[C@H](C)[C@@H](O[C@H]3C[C@@](C)(O)[C@@H](OC(=O)CC)[C@H](C)O3)[C@H](N(C)C)[C@H]2O)[C@H]1OC [ONC0000323, midecamycin] | 88.92% | –
C[N+]12CCC(CC1)C(OC(=O)C(O)(c1ccccc1)c1ccccc1)C2 (centres unmarked) [ONC0000315, clidinium bromide] | 88.97% | –
Cn1c(=O)n(-c2ccc(C(C)(C)C#N)cc2)c2c3cc(-c4cnc5ccccc5c4)ccc3ncc21 [ONC0005249, dactolisib bez235 nvpbez235] | 133.4% | –
CC(C)(CO)c1cc2cc(NC(=O)C3(c4ccc5c(c4)OC(F)(F)O5)CC3)c(F)cc2n1C[C@@H](O)CO [ONC0004399, vx661] | 112.4% | –
COc1ccc2c(O[C@@H]3C[C@H]4C(=O)N[C@]5(C(=O)NS(=O)(=O)C6CC6)C[C@H]5/C=C\CCCCN(C)C(=O)[C@@H]4C3)cc(-c3nc(C(C)C)cs3)nc2c1C [ONC0000991, simeprevir] | 85.85% | –

Molecule | % viability ([1]; m. mycetomatis hyphae) | further results
O=C(O)CCCc1ccc(N(CCCl)CCCl)cc1 [ONC0000730, chlorambucil] | 84.26% | –
CCO[C@H]1OC(=O)C[C@@H]1NC(=O)[C@@H]1CCCN1C(=O)[C@@H](NC(=O)c1ccc(N)c(Cl)c1)C(C)(C)C [ONC0004605, belnacasan vx765] | 74.26% | –
CC(C)OC(=O)C(C)NP(=O)(COC(C)Cn1cnc2c(N)ncnc21)Oc1ccccc1 (centres unmarked) [ONC0004548, tenofovir alafenamide gs7340] | 45.02% | –
CCOP(=S)(OCC)Oc1cc(C)nc(C(C)C)n1 [ONC0003874, dimpylate] | 60.75% | –
C=C(c1ccccc1OCc1cccc(Cl)c1)n1ccnc1 [Cloconazole HCl] | – | IC50 (M. mycetomatis strain I1): 0.41 µM; MIC (M. mycetomatis strain I1): 0.5 µM; IC50 [2]: 0.85 µM; MIC [2]: 1 µM; IC50 (M. mycetomatis strain P1): 0.74 µM; MIC (M. mycetomatis strain P1): 1 µM; activity at 2 µM (M. mycetomatis): 1.7%
CC1(C)CN(C(=O)c2ccc(-c3cccc4nc(NC(=O)C5CC5)nn34)cc2)C1 [ONC0001278, solcitinib] | 60.54% | –
O=C(O)[C@]1(Cc2cccc(Nc3nccs3)n2)CC[C@@H](Oc2cccc(Cl)c2F)CC1 [ONC0005246, mk5108 vx689] | 132.5% | –
CS[C@H]1SC[C@H]2C(=O)N(C)[C@@H](C(C)C)C(=O)OC[C@@H](NC(=O)c3cnc4ccccc4n3)C(=O)N[C@@H](C)C(=O)N(C)[C@@H]1C(=O)N(C)[C@@H](C(C)C)C(=O)OC[C@@H](NC(=O)c1cnc3ccccc3n1)C(=O)N[C@@H](C)C(=O)N2C [ONC0004195, echinomycin] | 114.7% | –
CC[C@@]1(O)C(=O)OCc2c1cc1n(c2=O)Cc2cc3cc(O)ccc3nc2-1 [ONC0005199, 10hydroxycamptothecin] | 143.5% | –
CCC1/C=C(\C)CC(C)CC(OC)C2OC(O)(C(=O)C(=O)N3CCCCC3C(=O)OC(/C(C)=C/C3CCC(O)C(OC)C3)C(C)C(O)CC1=O)C(C)CC2OC (centres unmarked) [ONC0004338, ascomycin fk520] | 150.4% | –
Cc1sc2c(c1C)C(c1ccc(Cl)cc1)=N[C@@H](CC(=O)Nc1ccc(O)cc1)c1nnc(C)n1-2 [ONC0005184, otx015] | 99.78% | –
CCC[C@H](NC(=O)[C@@H]1[C@H]2CCC[C@H]2CN1C(=O)[C@@H](NC(=O)[C@@H](NC(=O)c1cnccn1)C1CCCCC1)C(C)(C)C)C(=O)C(=O)NC1CC1 [ONC0004652, telaprevir vx950] | 71.4% | –
COc1cc(NC(=O)Nc2cccc(CNC(=O)O[C@H]3CCOC3)c2)ccc1-c1cnco1 [ONC0001842, merimepodib] | 78.29% | –
CNCc1ccc(-c2cc(-c3nc(-c4ccc(S(=O)(=O)C(C)C)cc4)cnc3N)on2)cc1 [ONC0005048, ve822] | 77.72% | –
CC(C)(O)CNc1nc(Nc2ccnc(C(F)(F)F)c2)nc(-c2cccc(C(F)(F)F)n2)n1 [ONC0001138, enasidenib] | 67.01% | –
COc1cccc([C@]2(O)CCCC[C@H]2CN(C)C)c1 [ONC0004178, tramadol hydrochloride] | 135.3% | –
CCCC(C)C1(CC)C(=O)NC(=S)NC1=O (centres unmarked) [ONC0001983, thiopental] | 75.11% | –
CC(C)CN(C[C@@H](O)[C@H](Cc1ccccc1)NC(=O)O[C@H]1CCOC1)S(=O)(=O)c1ccc(N)cc1 [ONC0003406, amprenavir] | 51.58% | –
O=c1ncn2nc(Sc3ccc(F)cc3F)ccc2c1-c1c(Cl)cccc1Cl [ONC0004865, vx745] | 118.9% | –
Cc1cnc(Nc2ccc(F)cc2Cl)nc1-c1c[nH]c(C(=O)N[C@H](CO)c2cccc(Cl)c2)c1 [ONC0005411, vx11e] | 117% | –
Cc1ccc(NC(=O)C2(c3ccc4c(c3)OC(F)(F)O4)CC2)nc1-c1cccc(C(=O)O)c1 [ONC0004867, vx809 lumacaftor] | 108.5% | –
CC[C@@](C)(Nc1ccnc(-c2c[nH]c3ncccc23)n1)C(=O)NCC(F)(F)F [ONC0001022, decernotinib] | 66.72% | –
c1ccc2oc(C3=NCCN3)cc2c1 [ONC0002719, 2bfi] | 76.35% | –
